Measurements from US20090105476A1, “Organic Compounds” (Novartis AG, priority 2006, published 2009).
Counter-ions that a name gives are not always drawn.

biological target: adenosine A2A receptor (Homo sapiens, UniProt P29274); test: A2A receptor agonist assay by the method of L. J. Murphree et al, Molecular Pharmacology 61, 455-462 (2002); type: binding; conditions: Mol. Pharmacol. 61, 455-462 (2002)
Excerpt: Compounds of formula I and their pharmaceutically acceptable salts are useful as pharmaceuticals. In particular, they activate the adenosine A2A receptor, i.e. they act as A2A receptor agonists.

Sequence of adenosine A2A receptor (P29274 whole entry): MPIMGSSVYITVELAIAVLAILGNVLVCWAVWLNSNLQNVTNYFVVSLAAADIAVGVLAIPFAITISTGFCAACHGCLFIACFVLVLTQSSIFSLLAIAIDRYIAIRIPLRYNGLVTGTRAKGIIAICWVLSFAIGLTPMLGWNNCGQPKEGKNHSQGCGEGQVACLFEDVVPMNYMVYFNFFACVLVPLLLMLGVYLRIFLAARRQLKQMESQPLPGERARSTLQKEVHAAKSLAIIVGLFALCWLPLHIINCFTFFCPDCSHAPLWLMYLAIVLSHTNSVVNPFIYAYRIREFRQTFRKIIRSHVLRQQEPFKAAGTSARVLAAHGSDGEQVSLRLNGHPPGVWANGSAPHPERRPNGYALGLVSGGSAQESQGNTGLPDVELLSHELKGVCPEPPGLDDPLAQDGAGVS

**Q.** O=C(N[C@H]1C[C@@H](n2cnc3c(NCC(c4ccccc4)c4ccccc4)nc(Cl)nc32)[C@H](O)[C@@H]1O)C1CC1 [Example 12, Cyclopropanecarboxylic acid {(1S,2R,3S,4R)-4-[2-chloro-6-(2,2-diphenyl-ethylamino)-purin-9-yl]-2,3-dihydroxy-cyclopentyl}-amide] was tested. Which Ki did it give?
**A.** Its Ki is 3 nM.

**Q.** For CCC(=O)N[C@H]1C[C@@H](n2cnc3c(NCC(c4ccccc4)c4ccccc4)nc(Cl)nc32)[C@H](O)[C@@H]1O [Example 4, N-{(1S,2R,3S,4R)-4-[2-chloro-6-(2,2-diphenyl-ethylamino)purin-9-yl]-2,3-dihydroxy-cyclopentyl}-propionamide], which Ki is on record?
**A.** Its Ki is 57 nM.

**Q.** How did the Ki turn out when CCC(=O)N[C@H]1C[C@@H](n2cnc3c(N)nc(NCCc4ccccc4)nc32)[C@H](O)[C@@H]1O [Example 2, N-[(1S,2R,3S,4R)-4-(6-Amino-2-phenethlamino-purin-9-yl)-2,3-dihydroxy-cyclopentyl]-propionamide trifluoroacetate] was run?
**A.** The Ki was 18 nM.

**Q.** CCC(=O)N[C@H]1C[C@@H](n2cnc3c(NCc4cccc5ccccc45)nc(N4CC[C@@H](NC(=O)N[C@@H]5CCNC5)C4)nc32)[C@H](O)[C@@H]1O [Example 55, N-((1S,2R,3S,4R)-2,3-Dihydroxy-4-{6-[(naphthalen-1-ylmethyl)-amino]-2-[(R)-3-((R)-3-pyrrolidin-3-ylureido)-pyrrolidin-1-yl]-purin-9-yl}-cyclopentyl)-propionamide Trifluoroacetate] was tested. Which Ki did it give?
**A.** Its Ki is 4 nM.

**Q.** How did the Ki turn out when CCC(=O)N[C@H]1C[C@@H](n2cnc3c(NCCC(c4ccccc4)c4ccccc4)nc(NCCc4cn(CC)cn4)nc32)[C@H](O)[C@@H]1O [Example 61, N-{(1S,2R,3S,4R)-4-(6-(3,3-diphenyl-propyl-amino)-2-[2-(1-ethyl-1H-imidazol-4-yl)-ethylamino]-purin-9-yl}-2,3-dihydroxy-cyclopentyl)-propionamide trifluoroacetate] was run?
**A.** The Ki was 9 nM.

**Q.** Which Ki does the source give for CCC(=O)N[C@H]1C[C@@H](n2cnc3c(NCC(c4ccccc4)c4ccccc4)nc(N4CC[C@@H](NC(=O)N[C@@H]5CCNC5)C4)nc32)[C@H](O)[C@@H]1O [Example 39, N-((1S,2R,3S,4R)-4-4-{6-(2,2-Diphenyl-ethylamino)-2-[(R)-3-((R)-3-pyrrolidin-3-yl)ureido)-pyrrolidin-1-yl]-purin-9-yl}-2,3-dihydroxy-cyclopentyl)-propionamide Trifluoroacetate] here?
**A.** Its Ki is 3 nM.

**Q.** With CC(=O)N[C@H]1C[C@@H](n2cnc3c(NCC(c4ccccc4)c4ccccc4)nc(C(=O)NCCNC(=O)NC4CCN(c5ccccn5)CC4)nc32)[C@H](O)[C@@H]1O [Example 42, 9-((1R,2S,3R,4S)-4-acetylamino-2,3-dihydroxy-cyclopentyl)-6-(2,2-diphenyl-ethylamino)-9H-purine-2-carboxylic acid {2-[3-(3,4,5,6-tetra-hydro-2H-[1,2′]bipyridinyl-4-yl)-ureido]-ethyl}-amide trifluoroacetate] as the molecule, how does the Ki read?
**A.** Its Ki is 2 nM.

**Q.** How did the Ki turn out when CCC(=O)N[C@H]1C[C@@H](n2cnc3c(NC(CC)CC)nc(NC4CCC(N)CC4)nc32)[C@H](O)[C@@H]1O (stereo partly drawn) [Example 20, N-{(1S,2R,3 S,4R)-4-[2-(4-Amino-cyclohexylamino)-6-(1-ethyl-propylamino)-purin-9-yl]-2,3-dihydroxy-cyclopentyl}-propionamide] was run?
**A.** Its Ki is 8 nM.

**Q.** How did the Ki turn out when CS(=O)(=O)N[C@H]1C[C@@H](n2cnc3c(N)nc(Cl)nc32)[C@H](O)[C@@H]1O [Example 1, N-[(1S,2R,3S,4R)-4-(6-Amino-2-chloropurin-9-yl)-2,3-dihydroxy-cyclopentyl]-methane-sulfonamide Trifluoroacetate] was run?
**A.** Its Ki is 582 nM.

**Q.** How did the Ki turn out when CCC(=O)N[C@H]1C[C@@H](n2cnc3c(NC(CC)CC)nc(Cl)nc32)[C@H](O)[C@@H]1O [Example 14, N-{(1S,2R,3S,4R)-4-[2-chloro-6-(1-ethyl-propylamino)-purin-9-yl]-2,3-dihydroxy-cyclopentyl}-propionamide] was run?
**A.** The Ki was 690 nM.

**Q.** For CCCCC#Cc1nc(NCC(c2ccccc2)c2ccccc2)c2ncn(C3CC(NC(=O)CC)C(O)C3O)c2n1 [Example 6, N-{(1S,2R,3S,4R)-4-[6-(2,2-Diphenyl-ethylamino-2-hex-1-ynyl-purin-9-yl]-2,3-dihydroxy-cyclopentyl}-propionamide], which Ki is on record?
**A.** The Ki was 8 nM.
